Data from PMC6272684, “Synthesis, Antiproliferative and Antifungal Activities of 1,2,3-Triazole-Substituted Carnosic Acid and Carnosol Derivatives” (Molecules, 2015).

Legend:
[1] = test system: C. albicans ATCC 10231; assay: Antifungal broth microdilution (CLSI M27-A3), growth inhibition; assay type: cell-based, Candida albicans; conditions: for MIC50 (minimum concentration to inhibit 50% of fungal growth), C. albicans: C. albicans ATCC 10231
Protocol: (§1) The antifungal properties of compounds 1–24 against two clinical important fungal species, C. albicans ATCC 10231 and C. neoformans ATCC 32264 were investigated. Results were expressed as the percentages of inhibition of each fungus in the range 250–3.9 μg∙mL^−1 by using the standardized microbroth dilution method M-27A3 of Clinical and Laboratory Standards Institute which assures reliable and reproducible results.
(§2) For the antifungal evaluation, standardized strains from the American Type Culture Collection (ATCC), Rockville, MD, USA, were used. The microorganisms included yeasts (Candida albicans ATCC 10231 and Cryptococcus neoformans ATCC 32264). Strains were grown on Sabouraud-chloramphenicol agar slants for 48 h at 30 °C, maintained on slopes of Sabouraud-dextrose agar (SDA, Oxoid), and subcultured every 15 days to prevent pleomorphic transformations. Inocula of cell or spore suspensions were obtained according to reported procedures and adjusted to 1–5 × 10^3 cells/spores with colony forming units (CFU)/mL [29].
(§3) Broth microdilution techniques were performed in 96-well microplates according to the Clinical and Laboratory Standards Institute Reference Method for Broth Dilution Antifungal Susceptibility Testing of Yeasts, Approved Standard M27-A3 [29]. For the assay, compound test wells (CTWs) were prepared with stock solutions of each compound in DMSO (maximum concentration ≤1%), diluted with RPMI-1640, to final concentrations of 250–3.9 μg∙mL^−1. An inoculum suspension (100 μL) was added to each well (final volume in the well = 200 μL). A growth control well (GCW) (containing medium, inoculum, and the same amount of DMSO used in a CTW, but compound-free) and a sterility control well (SCW) (sample, medium, and sterile water instead of inoculum) were included for each fungus tested. Microtiter trays were incubated in a moist, dark chamber at 30 °C for 48 h for both yeasts. Microplates were read in a VERSA Max microplate reader (Molecular Devices, Sunnyvale, CA, USA). Amphotericin B (Sigma-Aldrich) was used as positive control. Tests were performed in triplicate. Reduction of growth for each compound concentration was calculated as follows: % of inhibition = 100 − (OD 405 CTW − OD 405 SCW)/(OD 405 GCW − OD 405 SCW). The means ± SEM were the results of triplicate tests. Three endpoints were defined from the assay explained above and the dose-response curves. Minimum Inhibitory concentration (MIC) resulting in total fungal growth inhibition was named MIC100 while MIC50 was defined as the minimum concentration that inhibits 50% of the fungal growth.

[2] = test system: C. neoformans ATCC 32264; assay: as above; assay type: cell-based, Cryptococcus neoformans; conditions: for MIC50 (minimum concentration to inhibit 50% of fungal growth), C. neoformans: C. neoformans ATCC 32264
Protocol: as §1, §2, §3

SMILES	Inhibition percentage against C. albicans ATCC 10231 ([1]; 3.9 μg∙mL^−1, 48 h) [%]	Inhibition percentage against C. albicans ATCC 10231 ([1]; 7.8 μg∙mL^−1, 48 h) [%]	Inhibition percentage against C. albicans ATCC 10231 ([1]; 15.6 μg∙mL^−1, 48 h) [%]	Inhibition percentage against C. albicans ATCC 10231 ([1]; 62.5 μg∙mL^−1, 48 h) [%]	Inhibition percentage against C. albicans ATCC 10231 ([1]; 125 μg∙mL^−1, 48 h) [%]	Inhibition percentage against C. albicans ATCC 10231 ([1]; 250 μg∙mL^−1, 48 h) [%]	Inhibition percentage against C. albicans ATCC 10231 ([1]; 31. μg∙mL^−1, 48 h) [%]	MIC50 (minimum concentration to inhibit 50% of fungal growth), C. albicans [1] [µg/mL]	Inhibition percentage against C. neoformans ATCC 32264 ([2]; 3.9 μg∙mL^−1, 48 h) [%]	Inhibition percentage against C. neoformans ATCC 32264 ([2]; 7.8 μg∙mL^−1, 48 h) [%]	Inhibition percentage against C. neoformans ATCC 32264 ([2]; 15.6 μg∙mL^−1, 48 h) [%]	Inhibition percentage against C. neoformans ATCC 32264 ([2]; 31.2 μg∙mL^−1, 48 h) [%]	Inhibition percentage against C. neoformans ATCC 32264 ([2]; 62.5 μg∙mL^−1, 48 h) [%]	Inhibition percentage against C. neoformans ATCC 32264 ([2]; 125 μg∙mL^−1, 48 h) [%]	Inhibition percentage against C. neoformans ATCC 32264 ([2]; 250 μg∙mL^−1, 48 h) [%]	MIC50 (minimum concentration to inhibit 50% of fungal growth), C. neoformans [2] [µg/mL]
COC(=O)C12CCCC(C)(C)C1CCc1cc(C(C)C)c(OC(=O)CCCc3cn(Cc4ccc([N+](=O)[O-])cc4)nn3)c(OC(=O)CCCc3cn(Cc4ccc([N+](=O)[O-])cc4)nn3)c12 (centres unmarked) [Compound 16, Methyl(11,12-O-(4-(1-(4-nitrobenzyl)-1H-1,2,3-triazol-4-yl)-butanoyloxy)-abieta-8,11,13-triene)-20-oate]	0.0	0.8 ± 0.1	2.3 ± 0.1	7.2 ± 0.1	11.7 ± 0.5	21.1 ± 2.4	3.4 ± 0.5	>250	0.0	3.5 ± 0.4	5.0 ± 0.4	7.9 ± 0.1	14.5 ± 0.2	35.5 ± 0.4	36.9 ± 0.8	>250
COC(=O)C12CCCC(C)(C)C1CCc1cc(C(C)C)c(OC(=O)CCCc3cn(Cc4ccccc4)nn3)c(OC(=O)CCCc3cn(Cc4ccccc4)nn3)c12 (centres unmarked) [Compound 12, Methyl(11,12-O-(4-(1-benzyl-1H-1,2,3-triazol-4-yl)-butanoyloxy)-abieta-8,11,13-triene)-20-oate]	3.4 ± 0.3	3.6 ± 0.4	5.6 ± 1.9	14.9 ± 1.1	27.9 ± 0.1	50.0 ± 5.0	9.3 ± 2.6	250	0.0	0.0	7.7 ± 1.6	9.6 ± 0.8	17.3 ± 0.2	67.5 ± 0.7	63.1 ± 2.1	125
